Measured values published in PMC4069099, “Pharmacological Validation of an Inward-Rectifier Potassium (Kir) Channel as an Insecticide Target in the Yellow Fever Mosquito Aedes aegypti” (PLoS ONE, 2014).

Tests used:
Format in all cases: cell-based
AeKir1 [1] = biological target: T1, AeKir1 (Aedes aegypti, UniProt L0EQS9); test: Tl+-flux assay in T-REx-HEK293 cells expressing AeKir1; also two-electrode voltage clamp in Xenopus oocytes ([…], […] block)
T1 sequence (L0EQS9 1-486): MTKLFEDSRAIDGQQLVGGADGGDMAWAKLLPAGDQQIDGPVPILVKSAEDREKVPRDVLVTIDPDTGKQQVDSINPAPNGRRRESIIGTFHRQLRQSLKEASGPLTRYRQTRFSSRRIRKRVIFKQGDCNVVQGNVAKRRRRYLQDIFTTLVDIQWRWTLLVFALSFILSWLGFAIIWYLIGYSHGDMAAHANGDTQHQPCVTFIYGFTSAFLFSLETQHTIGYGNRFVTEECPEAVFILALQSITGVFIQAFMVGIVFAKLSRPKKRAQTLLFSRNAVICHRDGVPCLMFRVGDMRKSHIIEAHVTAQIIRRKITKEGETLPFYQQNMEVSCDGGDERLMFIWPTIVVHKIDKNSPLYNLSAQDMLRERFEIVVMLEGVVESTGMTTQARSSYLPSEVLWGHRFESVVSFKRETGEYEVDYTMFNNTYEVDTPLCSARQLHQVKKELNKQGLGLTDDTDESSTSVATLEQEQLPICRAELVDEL

AeKir1 [2] = biological target: T1, AeKir1; test: two-electrode voltage clamp in Xenopus oocytes, inhibition of inward current at […]
AeKir2B = biological target: T2, AeKir2B (Aedes aegypti, UniProt L0EQ40); test: two-electrode voltage clamp in Xenopus oocytes, activation of inward current at […]
T2 sequence (L0EQ40 1-489): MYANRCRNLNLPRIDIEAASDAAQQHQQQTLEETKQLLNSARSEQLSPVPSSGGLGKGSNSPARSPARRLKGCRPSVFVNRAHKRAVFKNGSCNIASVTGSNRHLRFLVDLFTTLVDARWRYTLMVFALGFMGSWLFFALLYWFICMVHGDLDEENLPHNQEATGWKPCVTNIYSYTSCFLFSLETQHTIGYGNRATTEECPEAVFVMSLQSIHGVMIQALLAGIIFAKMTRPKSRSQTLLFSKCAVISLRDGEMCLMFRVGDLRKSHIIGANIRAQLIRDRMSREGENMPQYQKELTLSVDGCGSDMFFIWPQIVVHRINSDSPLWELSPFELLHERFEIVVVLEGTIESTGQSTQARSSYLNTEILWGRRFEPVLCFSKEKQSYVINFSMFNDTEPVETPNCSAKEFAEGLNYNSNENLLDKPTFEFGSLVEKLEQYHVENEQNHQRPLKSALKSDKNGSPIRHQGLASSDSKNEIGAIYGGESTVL

O=[N+]([O-])c1ccc(CN2CCOCCOCCN(Cc3ccc([N+](=O)[O-])cc3)CCOCC2)cc1 [VU590]
IC50 (AeKir1 [1]): 5.6 µM

Cc1ccc(OCC(O)Cn2c(=N)n(Cc3ccccc3)c3ccccc32)cc1 (stereo not drawn) [VU573]
% inhibition at 50 μM (AeKir1 [2]): ~ 50 | % activation at 50 μM (AeKir2B): > 50 % activation at 50 µM
